Source: PubChem BioAssay AID624254 (Broad Institute, 2012)
Calls of active or inactive are those of the source. How the calls were made is not given here.

Assay: Luciferase light induction in v cholerae bh1651, agonist dose response, confirmatory (AID 624254)
Details: V. cholerae BH1651 luxOD47E, luciferase light induction, 6 h; at 50 µM (top of the series)
With `COc1cc(C(=O)Nc2ccc(NC(=O)C(C)C)nc2)cc(OC)c1OC` the “activation (light increase)” value was “inactive”. With `Cc1noc(C)c1NC(=O)Nc1cccc2c1O[C@@H](CN(C)S(=O)(=O)c1cccs1)[C@@H](C)CN([C@H](C)CO)C2=O` the “activation (light increase)” value was “inactive”. For `COc1cccc(CN(C)C(=O)CSC(C)C(=O)Nc2cc(C)on2)c1OC` (centres undefined), the “activation (light increase)” value was “inactive”. In the case of `Cn1cnc(S(=O)(=O)Nc2ccccc2Cl)c1`, the “activation (light increase)” value is reported as “inactive”. For `CC(C)c1ccc(C(=O)OCC(=O)NC2CCCC2)cc1`, the “activation (light increase)” value was “inactive”. For `Cn1ccnc1S(=O)(=O)Nc1ccc(OC(F)(F)F)cc1`, the “activation (light increase)” value was “inactive”. For `Nc1nnc(SCC(=O)Nc2ccc3c(c2)OCCO3)s1`, the “activation (light increase)” value was “inactive”. In the case of `C[C@@H]1CN([C@H](C)CO)C(=O)c2cccc(NC(=O)C3CC3)c2O[C@H]1CN(C)S(=O)(=O)c1cccs1`, the “activation (light increase)” value is reported as “inactive”. In the case of `COc1ccc(/C(N)=N/OC(=O)Cc2ccccc2OC)cc1`, the “activation (light increase)” value is reported as “inactive”. With `Cc1ccc2occ(C(c3nnnn3Cc3ccccc3)N3CCOCC3)c(=O)c2c1` (centres undefined) the “activation (light increase)” value was “inactive”. In the case of `COc1cc(SC)ccc1C(=O)OCC(=O)NC1CCCC1`, the “activation (light increase)” value is reported as “inactive”. With `CCN(CC(=O)Nc1c(F)cccc1F)C(=O)c1ccc(C)c(S(=O)(=O)N2CCCCC2)c1` the “activation (light increase)” value was “inactive”. For `Cc1ccc(S(=O)(=O)N2CCN(C(=O)COC(=O)/C=C/c3ccc(F)cc3)CC2)c(C)c1`, the “activation (light increase)” value was “inactive”. With `O=S(=O)(Cc1ccc(Cl)cc1)N1CCN(Cc2ccccc2)CC1` the “activation (light increase)” value was “inactive”. With `O=C(NCC(F)(F)F)Nc1ncccn1` the “activation (light increase)” value was “inactive”. For `CC(C)(C)c1ccc(C(=O)OCC(=O)NC2CC2)cc1`, the “activation (light increase)” value was “inactive”. With `CCNC(=O)OCc1cn(-c2ccccc2)nn1` the “activation (light increase)” value was “inactive”. For `C[C@H](CO)N1C[C@H](C)[C@H](CN(C)S(=O)(=O)c2ccccc2)Oc2c(NC(=O)Nc3ccc4c(c3)OCO4)cccc2C1=O`, the “activation (light increase)” value was “inactive”. In the case of `COc1ccccc1NC(=O)Cc1csc(NC(=S)Nc2ccccc2)n1`, the “activation (light increase)” value is reported as “inactive”. With `O=C(CNC(=O)c1ccncc1)Nc1ccc(F)c(F)c1` the “activation (light increase)” value was “inactive”. For `Cc1ccc(C2(C)NC(=O)N(CC(=O)NCCC3=CCCCC3)C2=O)cc1` (centres undefined), the “activation (light increase)” value was “inactive”. With `O=C(c1cccc(S(=O)(=O)N2CCc3ccccc32)c1)N1CCOCC1` the “activation (light increase)” value was “inactive”. For `C[C@@H]1CN([C@@H](C)CO)C(=O)c2cccc(NC(=O)Nc3ccc4c(c3)OCO4)c2O[C@H]1CN(C)S(=O)(=O)c1ccccc1`, the “activation (light increase)” value was “inactive”. With `O=C(COC(=O)/C=C/c1cccc(F)c1)NC1CCCC1` the “activation (light increase)” value was “inactive”. In the case of `Cc1ccccc1NS(=O)(=O)c1cn(C)cn1`, the “activation (light increase)” value is reported as “inactive”. For `CCCOc1ccc(-c2nc(C#N)c(N3CCN(CC)CC3)o2)cc1`, the “activation (light increase)” value was “inactive”. In the case of `COc1ccccc1NS(=O)(=O)c1cccc(C(=O)NCC(c2ccco2)N2CCCCC2)c1` (centres undefined), the “activation (light increase)” value is reported as “inactive”. In the case of `COc1ccc(NC(=O)CN(C)C(=O)c2cccc(S(=O)(=O)N3CCN(C)CC3)c2)cc1`, the “activation (light increase)” value is reported as “inactive”. For `NC(=O)c1nsc(C(=O)N(CC(=O)NCc2ccc(F)cc2)Cc2ccco2)c1N`, the “activation (light increase)” value was “inactive”. With `CCOC(=O)c1c(NC(=S)Nc2ccc(Cl)cc2)sc(C)c1C` the “activation (light increase)” value was “inactive”. In the case of `COc1ccccc1N1CCN(CCCOc2ccc(F)cc2)CC1`, the “activation (light increase)” value is reported as “inactive”. With `CC(OC(=O)Cn1cnc2c1c(=O)n(C)c(=O)n2C)C(=O)c1ccccc1` (centres undefined) the “activation (light increase)” value was “inactive”. In the case of `COc1cccc(CNC(=O)C2CSC3(C)CCC(=O)N23)c1` (centres undefined), the “activation (light increase)” value is reported as “inactive”. With `COc1ccc(Cl)cc1NC(=O)COC(=O)c1cc(C)oc1C` the “activation (light increase)” value was “inactive”. In the case of `COc1ccccc1CCNC(=O)C(=O)NCCC1CCCCN1S(=O)(=O)c1cccs1` (centres undefined), the “activation (light increase)” value is reported as “inactive”. For `c1ccc(-c2ccc(CN3Cc4ccccc4-n4nncc4C3)cc2)cc1`, the “activation (light increase)” value was “inactive”. For `CCCNC(=O)Cc1ccsc1`, the “activation (light increase)” value was “inactive”. In the case of `CCN1CCCC1CNC(=O)c1cc(OC)c(OC)c(OC)c1` (centres undefined), the “activation (light increase)” value is reported as “inactive”. In the case of `COC(=O)Cn1nc(-c2ccccc2)c2ccccc21`, the “activation (light increase)” value is reported as “inactive”. With `O=C(Nc1cccc(Cl)c1)Nc1ccc(Cl)cn1` the “activation (light increase)” value was “inactive”. With `COc1ccc2nc(SC(C)C(=O)NCC(=O)Nc3ccc(F)c(F)c3F)[nH]c2c1` (centres undefined) the “activation (light increase)” value was “inactive”. In the case of `Cc1cc(C(=O)OCC(=O)Nc2ccccc2F)c(C)o1`, the “activation (light increase)” value is reported as “inactive”. With `COc1ccccc1NC(=O)CN1CCN(C(=O)C2CCCO2)CC1` (centres undefined) the “activation (light increase)” value was “inactive”. With `Nc1nc(SCc2nc3sc4c(c3c(=O)[nH]2)CCCC4)n[nH]1` the “activation (light increase)” value was “inactive”. With `CCc1cc(C(=O)N2CCN(C(=O)c3ccccc3)CC2)sc1C` the “activation (light increase)” value was “inactive”. In the case of `C[C@H](CO)N1C[C@H](C)[C@@H](CN(C)S(=O)(=O)c2cccs2)Oc2c(NC(=O)C3CC3)cccc2C1=O`, the “activation (light increase)” value is reported as “inactive”. In the case of `COc1ccc(N(CC(=O)NC2CCCCC2)C(=O)CNC(=O)c2ccco2)c(OC)c1`, the “activation (light increase)” value is reported as “inactive”. With `Cc1cccc(C(=O)NCC(c2cccs2)N2CCOCC2)c1` (centres undefined) the “activation (light increase)” value was “inactive”. In the case of `COC(=O)c1c(-c2ccc(Br)cc2)noc1N`, the “activation (light increase)” value is reported as “inactive”. With `O=C(NCc1nc(-c2ccccc2)no1)c1cccs1` the “activation (light increase)” value was “inactive”. With `CCOC(=O)c1c(NC(=O)COC(=O)Cc2c[nH]c3ccccc23)sc(C(=O)N(C)C)c1C` the “activation (light increase)” value was “inactive”. For `CCCCNC(=O)c1ccccc1NC(=O)CCSc1ccccc1`, the “activation (light increase)” value was “inactive”. In the case of `CCC(=O)NCCc1nc(-c2ccccc2)no1`, the “activation (light increase)” value is reported as “inactive”. With `Cc1noc(C)c1COc1ccc(C(=O)NCC(c2c(F)cccc2Cl)N(C)C)cc1` (centres undefined) the “activation (light increase)” value was “inactive”. With `CCOC(=O)C1(CCOc2ccccc2)CCN(Cc2cc(OC)cc(OC)c2)CC1` the “activation (light increase)” value was “inactive”. With `CCN(CC)C(=O)c1sc(NC(=O)Cc2ccc(OC)cc2)c(C#N)c1C` the “activation (light increase)” value was “inactive”. In the case of `CCOC(=O)Nc1ccc(S(=O)(=O)Nc2cc(C)nc(C)n2)cc1`, the “activation (light increase)” value is reported as “inactive”. For `CCOc1ccc(C(=O)OCC(=O)N2CCCC2)cc1`, the “activation (light increase)” value was “inactive”. In the case of `Cc1cc(N2CCC(C)CC2)nc2ccc(N3C(=O)CCC3=O)cc12`, the “activation (light increase)” value is reported as “inactive”. With `CCOC(=O)N1CCN(C(=S)NCCOC)CC1` the “activation (light increase)” value was “inactive”. For `COCCNC(=S)N(CCCO)Cc1cc2cc3c(cc2[nH]c1=O)OCCO3`, the “activation (light increase)” value was “inactive”. In the case of `Cc1ccc(S(=O)(=O)N(C)c2nonc2C)cc1`, the “activation (light increase)” value is reported as “inactive”. With `C[C@@H]1CN([C@H](C)CO)C(=O)c2cccc(NC(=O)Nc3ccc4c(c3)OCO4)c2O[C@@H]1CN(C)S(=O)(=O)c1ccccc1` the “activation (light increase)” value was “inactive”. For `CN(Cc1nc2ccccc2n1C)C(=O)c1ccco1`, the “activation (light increase)” value was “inactive”. For `COc1ccc(OCC(=O)NC2CCCN(Cc3ccc(Cl)cc3)C2)cc1` (centres undefined), the “activation (light increase)” value was “inactive”. For `CCOC(=O)CC1C(=O)NCCN1C(=O)c1cccc(C(F)(F)F)c1` (centres undefined), the “activation (light increase)” value was “inactive”. In the case of `CC(C)CCN1CC(C(=O)N2CCN(c3ccc(F)cc3)CC2)CC1=O` (centres undefined), the “activation (light increase)” value is reported as “inactive”. In the case of `COCCCn1c(=S)[nH]c2ccc(N3CCOCC3)cc2c1=O`, the “activation (light increase)” value is reported as “inactive”. For `O=C(O)CN1CCN(Cc2ccc(F)cc2Cl)C1=O`, the “activation (light increase)” value was “inactive”.
